{"source": "ChEMBL document CHEMBL1146450", "about": "“Ponicidin and oridonin are responsible for the antiangiogenic activity of Rabdosia rubescens, a constituent of the herbal supplement PC SPES” (J Nat Prod, 2004)", "key": {"HMEC-1 [1]": {"system": "HMEC-1", "test": "Antiangiogenic activity in HMEC1 cells assessed as inhibition of capillary-like network formation at 1.5 ug/ml after 18 hrs", "assay_type": "functional, cell-based", "settings": "Homo sapiens"}, "HMEC-1 [2]": {"system": "HMEC-1", "test": "Antiangiogenic activity in HMEC1 cells assessed as inhibition of capillary-like network formation at 2.5 ug/ml after 18 hrs", "assay_type": "functional, cell-based", "settings": "Homo sapiens"}, "[3]": {"test": "Cytotoxicity against HMEC1 cells by resazurin assay", "assay_type": "cell-based", "settings": "Homo sapiens, HMEC-1"}}, "note": "Calls of active or inactive are those of the source. The calls are words filed in the database; no cut-off is given here."}
{"compound": "C=C1C(=O)[C@@]23[C@@H]4OC5O[C@@]2(O)[C@@H](O)[C@@H]2C(C)(C)CC[C@@H](O)[C@]52[C@@H]3CC[C@@H]14", "values": [{"measurement": "Activity", "setting": "HMEC-1 [1]", "value": "Active"}, {"measurement": "Activity", "setting": "HMEC-1 [2]", "value": "Active"}]}
{"compound": "C=C1C(=O)[C@]23[C@H](O)[C@H]1CC[C@H]2[C@@]12CO[C@]3(O)[C@@H](O)[C@@H]1C(C)(C)CC[C@@H]2O", "note": "[ORIDONIN]", "values": [{"measurement": "Activity", "setting": "HMEC-1 [1]", "value": "Active"}, {"measurement": "Activity", "setting": "HMEC-1 [2]", "value": "Active"}, {"measurement": "IC50", "setting": "[3]", "value": "> 4", "unit": "µg/mL"}]}
